Reference: patent publication US11453690B2, “Receptor inhibitor, pharmaceutical composition comprising same, and use thereof” (BEIJING TIDE PHARMACEUTICAL CO., LTD., priority 2018, dated 2022)

Molecular target: AT2 Receptor (AT2R) (Homo sapiens (Human), UniProt P50052)
Assay: Measurement of inhibitory activity on AT2 receptor (Tag-lite HTRF, Tb-labeled AT2R cells, angiotensin receptor red agonist)
Assay type: binding
Settings: 1 h room temperature

AT2 Receptor (AT2R), sequence (P50052 whole entry): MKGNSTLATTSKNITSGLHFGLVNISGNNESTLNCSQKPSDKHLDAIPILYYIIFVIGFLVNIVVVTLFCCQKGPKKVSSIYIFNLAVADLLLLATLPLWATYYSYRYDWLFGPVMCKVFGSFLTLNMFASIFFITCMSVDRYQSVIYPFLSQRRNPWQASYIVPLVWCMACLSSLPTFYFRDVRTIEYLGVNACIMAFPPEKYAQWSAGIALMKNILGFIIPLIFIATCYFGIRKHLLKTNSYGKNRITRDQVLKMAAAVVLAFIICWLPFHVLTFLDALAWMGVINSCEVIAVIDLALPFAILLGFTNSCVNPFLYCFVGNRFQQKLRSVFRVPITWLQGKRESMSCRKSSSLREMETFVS

Row | SMILES | IC50 [nM]
1 | O=C(O)[C@@H]1[C@H]2CC[C@@H](CN1C(=O)N(c1ccccc1)c1ccccc1)N2C(=O)N1CCN(c2ccccc2)CC1 [Compound C132, (1R,2S,5S)-3-(diphenylcarbamoyl)-8-(4-phenylpiperazine-1-carbonyl)-3,8-diazabicyclo[3.2.1] octane-2-carboxylic acid] | 482
2 | O=C(O)[C@@H]1[C@H]2CC[C@@H](CN1C(=O)N(c1ccccc1)c1ccccc1)N2c1nccc(-c2ccccc2)n1 [Compound C210, (1R,2S,5S)-3-(diphenylcarbamoyl)-8-(4-phenylpyrimidine-2-yl)-3,8-diazabicyclo[3.2.1] octane-2-carboxylic acid] | 49.5
3 | CCN(Cc1cscn1)C(=O)N1[C@H]2CC[C@@H]1[C@@H](C(=O)O)N(C(=O)N(c1ccccc1)c1ccccc1)C2 [Compound C209, (1R,2S,5S)-3-(diphenylcarbamoyl)-8-(ethyl(thiazole-4-ylmethyl)carbamoyl)-3,8-diazabicyclo [3.2.1]octane-2-carboxylic acid] | 81.4
4 | CN(Cc1ccccc1)C(=O)N1C[C@@H]2CC[C@H]([C@H]1C(=O)O)N2C(=O)C(c1ccccc1)c1ccccc1 [Compound C62, (1R,2S,5S)-3-(benzyl(methyl)carbamoyl)-8-(2,2-diphenylacetyl)-3,8-diazabicyclo[3.2.1]octane-2-carboxylic acid] | 104
5 | CN(Cc1ccc2cc[nH]c2c1)C(=O)N1[C@H]2CC[C@@H]1[C@@H](C(=O)O)N(C(=O)N(c1ccccc1)c1ccccc1)C2 [Compound C249, (1R,2S,5S)-8-(((1H-indole-6-yl)methyl)(methyl)carbamoyl)-3-(diphenylcarbamoyl)-3,8-diazabicyclo [3.2.1]octane-2-carboxylic acid] | 10.9
6 | O=C(O)[C@@H]1[C@H]2CC[C@@H](CN1C(=O)N(c1ccccc1)c1ccccc1)N2C(=O)N1CCCC1c1ccc(Cl)cc1 (stereo in doubt) [Compound C144, (1R,2S,5S)-8-((R)-2-(4-chlorphenyl)pyrrolidine-1-carbonyl)-3-(diphenylcarbamoyl)-3,8-diazabicyclo [3.2.1]octane-2-carboxylic acid] | 21.6
7 | CC(C)c1ccc(CN(C)C(=O)N2[C@H]3CC[C@@H]2[C@@H](C(=O)O)N(C(=O)N(c2ccccc2)c2ccccc2)C3)cc1 [Compound C214, (1R,2S,5S)-3-(diphenylcarbamoyl)-8-((4-isopropylbenzyl) (methyl)carbamoyl)-3,8-diazabicyclo [3.2.1]octane-2-carboxylic acid] | 11.3
8 | CN(Cc1ccc(F)cc1)C(=O)N1[C@H]2CC[C@@H]1[C@@H](C(=O)O)N(C(=O)N(c1ccccc1)c1ccccc1)C2 [Compound C161, (1R,2S,5S)-3-(diphenylcarbamoyl)-8-((4-fluorobenzyl) (methyl)carbamoyl)-3,8-thazabicyclo [3.2.1]octane-2-carboxylic acid] | 30.5
9 | C#Cc1ccc(CN(C)C(=O)N2[C@H]3CC[C@@H]2[C@@H](C(=O)O)N(C(=O)N(c2ccccc2)c2ccccc2)C3)cc1 [Compound C171, (1R,2S,5S)-3-(diphenylcarbamoyl)-8-((4-ethynylbenzyl) (methyl)carbamoyl)-3,8-diazabicyclo [3.2.1]octane-2-carboxylic acid] | 19.2
10 | CCN(Cc1ccc(C)s1)C(=O)N1[C@H]2CC[C@@H]1[C@@H](C(=O)O)N(C(=O)N(c1ccccc1)c1ccccc1)C2 [Compound C202, (1R,2S,5S)-3-(diphenylcarbamoyl)-8-(ethyl((5-methylthiophen-2-yl)methyl)carbamoyl)-3,8-diazabicyclo [3.2.1]octane-2-carboxylic acid] | 3.87
11 | CN(Cc1ccccc1)C(=O)N1[C@H]2CC[C@@H]1[C@@H](C(=O)O)N(C(=O)N(c1ccc(F)cc1)c1ccc(F)cc1)C2 [Compound C129, (1R,2S,5S)-8-(benzyl(methyl)carbamoyl)-3-(bis(4-fluorophenyl)carbamoyl)-3,8-diazabicyclo [3.2.1]octane-2-carboxylic acid] | 148
12 | CN(Cc1csc(Cl)c1)C(=O)N1[C@H]2CC[C@@H]1[C@@H](C(=O)O)N(C(=O)N(c1ccccc1)c1ccccc1)C2 [Compound C186, (1R,2S,5S)-8-(((5-chlorothiophene-3-yl)methyl) (methyl)carbamoyl)-3-(diphenylcarbamoyl)-3,8-diazabicyclo [3.2.1]octane-2-carboxylic acid] | 64.6
13 | O=C(O)[C@@H]1[C@H]2CC[C@@H](CN1C(=O)C(c1ccccc1)c1ccccc1)N2C(=O)OCc1c(F)cccc1F [Compound C36, (1R,2S,5S)-8-(((2,6-diflurorbenzyl)oxy)carbonyl)-3-(2,2-diphenylacetyl)-3,8-diazabicyclo [3.2.1]octane-2-carboxylic acid] | 20.7
14 | O=C(O)[C@@H]1[C@H]2CC[C@@H](CN1C(=O)C(c1ccccc1)c1ccccc1)N2C(=O)N1c2ccccc2C=Cc2ccccc21 [Compound C9, (1R,2S,5S)-8-(5H-dibenzo[b,f]azepine-5-carbonyl)-3-(2,2-diphenylacetyl)-3,8-diazabicyclo [3.2.1]octane-2-carboxylic acid] | 107
15 | O=C(O)[C@@H]1[C@H]2CC[C@@H](CN1C(=O)N1c3ccccc3C=Cc3ccccc31)N2C(=O)N(c1ccccc1)c1ccccc1 [Compound C7, (1R,2S,5S)-3-(5H-dibenzo[b,f]azepine-5-carbonyl)-8-(diphenylcarbamoyl)-3,8-diazabicyclo[3. 2.1]octane-2-carboxylic acid] | 82.7
16 | CCN(Cc1ccc(C)s1)C(=O)N1[C@H]2CC[C@@H]1[C@@H](C(=O)O)N(C(=O)C(c1ccccc1)c1ccccc1)C2 [Compound C278, (1R,2S,5S)-3-(2,2-diphenylacetyl)-8-(ethyl((5-methylthiophen-2-yl)methyl)carbamoyl)-3,8-diazabicyclo [3.2.1]octane-2-carboxylic acid] | 10.6
17 | CN(Cc1ccncc1)C(=O)N1[C@H]2CC[C@@H]1[C@@H](C(=O)O)N(C(=O)N(c1ccccc1)c1ccccc1)C2 [Compound C125, (1R,2S,5S)-3-(diphenylcarbamoyl)-8-(methyl(pyridine-4-ylmethyl)carbamoyl)-3,8-diazabicyclo [3.2.1]octane-2-carboxylic acid] | 19
18 | CCCc1ccc(CN(C)C(=O)N2[C@H]3CC[C@@H]2[C@@H](C(=O)O)N(C(=O)N(c2ccccc2)c2ccccc2)C3)cc1 [Compound C236, (1R,2S,5S)-3-(diphenylcarbamoyl)-8-(methyl(4-propylbenzyl)carbamoyl)-3,8-diazabicyclo[3.2.1]octane-2-carboxylic acid] | 6.13
19 | CN(CC1CCCCC1)C(=O)N1[C@H]2CC[C@@H]1[C@@H](C(=O)O)N(C(=O)N(c1ccccc1)c1ccccc1)C2 [Compound C147, (1R,2S,5S)-8-((cyclohexylmethyl) (methyl)carbamoyl)-3-(diphenylcarbamoyl)-3,8-diazabicyclo [3.2.1]octane-2-carboxylic acid] | 111
20 | O=C(O)[C@@H]1[C@H]2CC[C@@H](CN1C(=O)N(c1ccccc1)c1ccccc1)N2C(=O)N(Cc1ccc(Cl)cc1)CC1CC1 [Compound C218, (1R,2S,5S)-8-((4-chlorobenzyl) (cyclopropylmethyl)carbamoyl)-3-(diphenylcarbamoyl)-3,8-diazabicyclo [3.2.1]octane-2-carboxylic acid] | 11.5
21 | CN(Cc1ccccn1)C(=O)N1[C@H]2CC[C@@H]1[C@@H](C(=O)O)N(C(=O)N(c1ccccc1)c1ccccc1)C2 [Compound C126, (1R,2S,5S)-3-(diphenylcarbamoyl)-8-(methyl(pyridine-2-ylmethyl)carbamoyl)-3,8-diazabicyclo [3.2.1]octane-2-carboxylic acid] | 78
22 | O=C(O)[C@@H]1[C@H]2CC[C@@H](CN1C(=O)N(c1ccccc1)c1ccccc1)N2C(=O)N1CCc2ccccc2C1 [Compound C131, (1R,2S,5S)-3-(diphenylcarbamoyl)-8-(1,2,3,4-tetrahydroisoquinoline-2-carbonyl)-3,8-diazabicyclo [3.2.1]octane-2-carboxylic acid] | 495
23 | CN(Cc1ccc(Cl)nc1)C(=O)N1[C@H]2CC[C@@H]1[C@@H](C(=O)O)N(C(=O)N(c1ccccc1)c1ccccc1)C2 [Compound C255] | 13.8
24 | CCN(Cc1sccc1C)C(=O)N1[C@H]2CC[C@@H]1[C@@H](C(=O)O)N(C(=O)N(c1ccccc1)c1ccccc1)C2 [Compound C272, (1R,2S,5S)-3-(diphenylcarbamoyl)-8-(ethyl((3-methylthiophen-2-yl)methyl)carbamoyl)-3,8-diazabicyclo [3.2.1]octane-2-carboxylic acid] | 16.6
25 | C=C(C)c1ccc(CN(C)C(=O)N2[C@H]3CC[C@@H]2[C@@H](C(=O)O)N(C(=O)N(c2ccccc2)c2ccccc2)C3)cc1 [Compound C215] | 26.5
26 | O=C(O)[C@@H]1[C@H]2CC[C@@H](CN1C(=O)N(c1ccccc1)c1ccccc1)N2C(=O)Cc1c[nH]c2ccccc12 [Compound C259, (1R,2S,5S)-8-(2-(1H-indole-3-yl)acetyl)-3-(diphenylcarbamoyl)-3,8-diazabicyclo [3.2.1]octane-2-carboxylic acid] | 245
27 | O=C(NC1CC2CCC1C(C(=O)O)N2C(=O)C(c1ccccc1)c1ccccc1)c1ccccc1 (stereo in doubt) [Compound C286, (1S,3S,4R)-5-benzamido-2-(2,2-diphenylacetyl)-2-azabicyclo[2.2.2]octane-3-carboxylic acid] | 760
28 | O=C(O)[C@@H]1[C@H]2CC[C@@H](CN1C(=O)N(c1ccccc1)c1ccccc1)N2C(=O)N(Cc1ccccc1)C1CC1 [Compound C153, (1R,2S,5S)-8-(benzyl (cyclopropyl)carbamoyl)-3-(diphenylcarbamoyl)-3,8-diazabicyclo [3.2.1]octane-2-carboxylic acid] | 2.78
29 | CN(Cc1cccc(Cl)c1)C(=O)N1[C@H]2CC[C@@H]1[C@@H](C(=O)O)N(C(=O)N(c1ccccc1)c1ccccc1)C2 [Compound C151, (1R,2S,5S)-8-((3-chlorobenzyl) (methyl)carbamoyl)-3-(diphenylcarbamoyl)-3,8-diazabicyclo [3.2.1]octane-2-carboxylic acid] | 74.3
30 | CC(NC(=O)N1[C@H]2CC[C@@H]1[C@@H](C(=O)O)N(C(=O)N(c1ccccc1)c1ccccc1)C2)c1ccccc1 (stereo partly drawn) [Compound C117, (1R,2S,5S)-3-(diphenylcarbamoyl)-8-((1-phenylethyl)carbamoyl)-3,8-diazabicyclo [3.2.1]octane-2-carboxylic acid] | 61.3
